Data taken from US20080188481A1 (priority 2002, published 2008).

Test system: HIV-1 single-round infectious reporter virus
Assay: Single-round infectious HIV-1 luciferase reporter virus infection of HeLa CD4 cells (antiviral EC50)
Format: cell-based
Conditions: Human immunodeficiency virus 1, HeLa, 72 h, read-out: EC50 Group from Table 1
Protocol: • Virus production—Human embryonic Kidney cell line, 293T, was propagated in Dulbecco's Modified Eagle Medium (Invitrogen, Carlsbad, Calif.) containing 10% fetal Bovine serum (FBS, Sigma, St. Louis, Mo.). • Virus infection—Human epithelial cell line, HeLa, expressing the HIV-1 receptor CD4 was propagated in Dulbecco's Modified Eagle Medium (Invitrogen, Carlsbad, Calif.) containing 10% fetal Bovine serum (FBS, Sigma, St. Louis, Mo.) and supplemented with 0.2 mg/mL Geneticin (Invitrogen, Carlsbad, Calif.). Virus-Single-round infectious reporter virus was produced by co-transfecting human embryonic Kidney 293 cells with an HIV-1 envelope DNA expression vector and a proviral cDNA containing an envelope deletion mutation and the luciferase reporter gene inserted in place of HIV-1 nef sequences (Chen et al, Ref. 41). Transfections were performed using lipofectAMINE PLUS reagent as described by the manufacturer (Invitrogen, Carlsbad, Calif.).
• 1. HeLa CD4 cells were plated in 96 well plates at a cell density of 1×10^4 cells per well in 100 μl Dulbecco's Modified Eagle Medium containing 10% fetal Bovine serum and incubated overnight. • 2. Compound was added in a 2 μl dimethylsulfoxide solution, so that the final assay concentration would be ≦10 μM. • 3. 100 μl of single-round infectious reporter virus in Dulbecco's Modified Eagle Medium was then added to the plated cells and compound at an approximate multiplicity of infection (MOI) of 0.01, resulting in a final volume of 200 μl per well. • 4. Virally-infected cells were incubated at 37 degrees Celsius, in a CO2 incubator, and harvested 72 h after infection. • 5. Viral infection was monitored by measuring luciferase expression from viral DNA in the infected cells using a luciferase reporter gene assay kit, as described by the manufacturer (Roche Molecular Biochemicals, Indianapolis, Ind.). Infected cell supernatants were removed and 50 μl of lysis buffer was added per well. After 15 minutes, 50 μl of freshly-reconstituted luciferase assay reagent was added per well. Luciferase activity was then quantified by measuring luminescence using a Wallac microbeta scintillation counter. • 6. The percent inhibition for each compound was calculated by quantifying the level of luciferase expression in cells infected in the presence of each compound as a percentage of that observed for cells infected in the absence of compound and subtracting such a determined value from 100. • 7. An EC50 provides a method for comparing the antiviral potency of the compounds of this invention. The effective concentration for fifty percent inhibition (EC50) was calculated with the Microsoft Excel Xlfit curve fitting software. For each compound, curves were generated from percent inhibition calculated at 10 different concentrations by using a four paramenter logistic model (model 205). Table 1 is the key for the data in Table 2.

| Compound | EC50 |
| --- | --- |
| N#CC(=C1CCN(C(=O)C(=O)c2c[nH]c3c(-n4cncn4)ncc(F)c23)CC1)c1ccccc1 [Example 110, {1-[2-(4-Fluoro-7-[1,2,4]triazol-1-yl-1H-pyrrolo[2,3-c]pyridin-3-yl)-2-oxo-acetyl]-piperidin-4-ylidene}-phenyl-acetonitrile] | < 1000 nM |
| N#CC(=C1CCN(C(=O)C(=O)c2c[nH]c3c(-n4ccc(N)n4)ncc(F)c23)CC1)c1ccccc1 [Example 111, (1-{2-[7-(3-Amino-pyrazol-1-yl)-4-fluoro-1H-pyrrolo[2,3-c]pyridin-3-yl]-2-oxo-acetyl}-piperidin-4-ylidene)-phenyl-acetonitrile] | < 1000 nM |
| COc1ncc(OC)c2c(C(=O)C(=O)N3CCC(=C(C#C[Si](C)(C)C)c4ccccc4)CC3)c[nH]c12 [Example 112, 1-[4-(1-Phenyl-1-(2-trimethylsilylethyn-1-yl)-methylene)-piperidin-1-yl]-2-(4,7-dimethoxy-6-azaindol-3-yl)-ethane-1,2-dione] | < 1000 nM |
| C#CC(=C1CCN(C(=O)C(=O)c2c[nH]c3c(OC)ncc(OC)c23)CC1)c1ccccc1 [Example 113, 1-[4-(1-Phenyl-1-ethynyl-methylene)-piperidin-1-yl]-2-(4,7-dimethoxy-6-azaindol-3-yl)-ethane-1,2-dione] | < 1000 nM |
| COc1ncc(OC)c2c(C(=O)C(=O)N3CCC(=C(C#CC(C)C)c4ccccc4)CC3)c[nH]c12 [Example 114, 1-[4-(1-Phenyl-1-(2-isopropylethyn-1-yl)-methylene)-piperidin-1-yl]-2-(4,7-dimethoxy-6-azaindol-3-yl)-ethane-1,2-dione] | < 1000 nM |
| COc1ncc(OC)c2c(C(=O)C(=O)N3CCC(=C(C#CC4CC4)c4ccccc4)CC3)c[nH]c12 [Example 115, 1-[4-(1-Phenyl-1-(2-cyclopropylethyn-1-yl)-methylene)-piperidin-1-yl]-2-(4,7-dimethoxy-6-azaindol-3-yl)-ethane-1,2-dione] | < 1000 nM |
| COc1ncc(OC)c2c(C(=O)C(=O)N3CCC(=C(C#CCO)c4ccccc4)CC3)c[nH]c12 [Example 116, 1-[4-(1-Phenyl-1-(2-hydroxymethylethyn-1-yl)-methylene)-piperidin-1-yl]-2-(4,7-dimethoxy-6-azaindol-3-yl)-ethane-1,2-dione] | < 1000 nM |
| COCC#CC(=C1CCN(C(=O)C(=O)c2c[nH]c3c(OC)ncc(OC)c23)CC1)c1ccccc1 [Example 117, 1-[4-(1-Phenyl-1-(2-methoxymethylethyn-1-yl)-methylene)-piperidin-1-yl]-2-(4,7-dimethoxy-6-azaindol-3-yl)-ethane-1,2-dione] | < 1000 nM |
| COc1ncc(OC)c2c(C(=O)C(=O)N3CCC(=C(C#Cc4ccccc4)c4ccccc4)CC3)c[nH]c12 [Example 118, 1-[4-(1-Phenyl-1-(2-phenylethyn-1-yl)-methylene)-piperidin-1-yl]-2-(4,7-dimethoxy-6-azaindol-3-yl)-ethane-1,2-dione] | < 1000 nM |
| COc1ncc(OC)c2c(C(=O)C(=O)N3CCC(=C(C#CC(=O)O)c4ccccc4)CC3)c[nH]c12 [Example 119, 1-[4-(1-Phenyl-1-(2-carboxyethyn-1-yl)-methylene)-piperidin-1-yl]-2-(4,7-dimethoxy-6-azaindol-3-yl)-ethane-1,2-dione] | < 1000 nM |
| COc1cnc(-n2cnc(C)n2)c2[nH]cc(C(=O)C(=O)N3CCC(=C(c4ccccc4)c4cncc(CO)c4)CC3)c12 [Example 120, 1-[4-(1-Phenyl-1-(5-hydroxymethylpyridin-3-yl)-methylene)-piperidin-1-yl]-2-[4-methoxy-7-(3-methyl-1,2,4-triazol-1-yl)-6-azaindol-3-yl]-ethane-1,2-dione] | < 1000 nM |
| CCOC(=O)c1cncc(C(=C2CCN(C(=O)C(=O)c3c[nH]c4c(-n5cnc(C)n5)ncc(OC)c34)CC2)c2ccccc2)c1 [Example 121] | < 1000 nM |
| COc1ncc(OC)c2c(C(=O)C(=O)N3CCC(=C(C#N)c4nnc(-c5ccccc5)o4)CC3)c[nH]c12 [Example 122, 1-[4-(1-Cyano-1-(5-phenyl-1,3,4-oxadiazol-2-yl)-methylene)-piperidin-1-yl]-2-(4,7-dimethoxy-6-azaindol-3-yl)-ethane-1,2-dione] | > 5000 nM |
| COc1ncc(OC)c2c(C(=O)C(=O)N3CCC(=C(C#N)c4nc5ccccc5s4)CC3)c[nH]c12 [Example 123, 1-[4-(1-Cyano-1-benzothiazol-2-yl-methylene)-piperidin-1-yl]-2-(4,7-dimethoxy-6-azaindol-3-yl)-ethane-1,2-dione] | > 5000 nM |
| COc1ncc(OC)c2c(C(=O)C(=O)N3CCC(=C(C#N)c4cncs4)CC3)c[nH]c12 [Example 124, 1-[4-(1-Cyano-1-thiazol-5-yl-methylene)-piperidin-1-yl]-2-(4,7-dimethoxy-6-azaindol-3-yl)-ethane-1,2-dione] | < 1000 nM |
| COc1ncc(OC)c2c(C(=O)C(=O)N3CCC(=C(C#N)c4c(C)sc(C)c4C)CC3)c[nH]c12 [Example 125, 1-[4-(1-Cyano-1-(2,3,5-trimethylthien-4-yl)-methylene)-piperidin-1-yl]-2-(4,7-dimethoxy-6-azaindol-3-yl)-ethane-1,2-dione] | > 5000 nM |
| COc1ncc(OC)c2c(C(=O)C(=O)N3CCC(=C(C#N)c4ccsc4)CC3)c[nH]c12 [Example 126, 1-[4-(1-Cyano-1-thien-3-yl-methylene)-piperidin-1-yl]-2-(4,7-dimethoxy-6-azaindol-3-yl)-ethane-1,2-dione] | < 1000 nM |
| COc1ncc(OC)c2c(C(=O)C(=O)N3CCC(=C(C#N)c4coc5ccccc45)CC3)c[nH]c12 [Example 127, 1-[4-(1-Cyano-1-benzofuran-3-yl-methylene)-piperidin-1-yl]-2-(4,7-dimethoxy-6-azaindol-3-yl)-ethane-1,2-dione] | < 1000 nM |
| COc1ncc(OC)c2c(C(=O)C(=O)N3CCC(=C(C#N)c4csc5ccccc45)CC3)c[nH]c12 [Example 128, 1-[4-(1-Cyano-1-benzothien-3-yl-methylene)-piperidin-1-yl]-2-(4,7-dimethoxy-6-azaindol-3-yl)-ethane-1,2-dione] | < 1000 nM |
| N#CC(=C1CCN(C(=O)C(=O)c2c[nH]c3c(-n4ccnn4)ncc(F)c23)CC1)c1ccccc1 [Example 129a, {1-[2-(4-Fluoro-7-[1,2,3]triazol-1-yl-1H-pyrrolo[2,3-c]pyridin-3-yl)-2-oxo-acetyl]-piperidin-4-ylidene}-phenyl-acetonitrile] | < 1000 nM |
| C=C(C)c1nnc(C(=C2CCN(C(=O)C(=O)c3c[nH]c4c(-n5cnc(C)n5)ncc(OC)c34)CC2)c2ccccc2)o1 [Example 130, 1-[4-(1-Phenyl-1-(5-isopropenyl-1,3,4-oxadiazol-2-yl)-methylene)-piperidin-1-yl]-2-[4-methoxy-7-(3-methyl-1,2,4-triazol-1-yl)-6-azaindol-3-yl]-ethane-1,2-dione] | < 1000 nM |
| COc1cnc(-n2cnc(C)n2)c2[nH]cc(C(=O)C(=O)N3CCC(=C(c4ccccc4)c4nnco4)CC3)c12 [Example 131, 1-[4-(1-Phenyl-1-(1,3,4-oxadiazol-2-yl)-methylene)-piperidin-1-yl]-2-[4-methoxy-7-(3-methyl-1,2,4-triazol-1-yl)-6-azaindol-3-y]-ethane-1,2-dione] | < 1000 nM |
| COc1cnc(-n2ccnn2)c2[nH]cc(C(=O)C(=O)N3CCC(=C(c4ccccc4)c4nnco4)CC3)c12 [Example 132, 1-[4-(1-Phenyl-1-(1,3,4-oxadiazol-2-yl)-methylene)-piperidin-1-yl]-2-[4-methoxy-7-(1,2,3-triazol-1-yl)-6-azaindol-3-yl]-ethane-1,2-dione] | < 1000 nM |
| COc1cnc(-n2cnc(C)n2)c2[nH]cc(C(=O)C(=O)N3CCC(=C(c4ccccc4)c4nnc(C5CCC5)o4)CC3)c12 [Example 133, 1-[4-(1-Phenyl-1-(5-cyclobutyl-1,3,4-oxadiazol-2-yl)-methylene)-piperidin-1-yl]-2-[4-methoxy-7-(3-methyl-1,2,4-triazol-1-yl)-6-azaindol-3-yl]-ethane-1,2-dione] | < 1000 nM |
| COc1cnc(-n2cnc(C)n2)c2[nH]cc(C(=O)C(=O)N3CCC(=C(c4ccccc4)c4nnc(C(C)(C)C)o4)CC3)c12 [Example 134, 1-[4-(1-Phenyl-1-(5-tert-butyl-1,3,4-oxadiazol-2-yl)-methylene)-piperidin-1-yl]-2-[4-methoxy-7-(3-methyl-1,2,4-triazol-1-yl)-6-azaindol-3-yl]-ethane-1,2-dione] | < 1000 nM |
